Measured values reported in patent US20120178796A1, “SPLICE VARIANTS” (priority 2009, published 2012).

Experiments:
Format in all cases: cell-based, human
p53 [1] = assay: Immunoblot of p53 protein and p53 acetylation after siRNA silencing or stress, ARPE19 cells; details: for p53 induction in response to DNA damaging agent: agent alone
Experimental: (§1) Isogenic colorectal carcinoma cell lines HCT116 p53+/+ and HCT116 p53-/- were cultured in DMEM supplemented with 10% FBS. Non-cancer retinal epithelial cell line ARPE-19 was cultured in DMEM:F12 supplemented with 10% FBS. Cells used in experiments were low passage number (not >8 splits from nitrogen). Transfection of siRNA were as described (Ford et al., 2005; Ford et al., 2008). SIRT1 FL siRNA (targeting SIRT1 FL and SIRT1 ΔEx3-4) is sited within exon8; SIRT1 ΔEx8 siRNA (targeting SIRT1 ΔEx8 and SIRT1 ΔEx3-4-8) is located across the alternate exon7-exon9 splice. Sequences and locations of siRNAs are detailed in the Supplementary Table 3.

[2] = test system: ARPE19 retinal epithelial cells; assay: Morphological neuronal differentiation of ARPE19 cells (phase contrast micrographs); details: for morphological differentiation towards neuronal phenotype after siRNA silencing: 72 h to 96 hr after siRNA
Experimental: as §1
(§2) Digital phase contrast cell images were captured on an Axiovert Cell Observer (Zeiss). Quantification of apoptosis was performed using an AnnexinV-Fluos kit (Roche) according to the manufacturer's instructions, with analysis by flow cytometry on a FACSCalibur (BD) using CellQuest software.
Cells were treated for 48 h with 1 μM fenretinide in OPTIMEM media 24 h following siRNA transfection. Before addition of fenretinide cells were first washed with OPTIMEM to remove serum. 48 h later fenretinide was removed by washing with OPTIMEM and normal growth media with serum was added. Cells were then monitored by microscopy for a further 48 h.

p53 [3] = assay: Immunoblot of p53 protein and p53 acetylation after siRNA silencing, HCT116 cells
Experimental: as §1

[4] = test system: HCT116 colorectal cancer cells; assay: Apoptosis after siRNA silencing (micrographs, annexin V staining), HCT116 cells; details: single dose of siRNA, basal conditions
Experimental: as §1, §2

[5] = test system: ARPE19 non-cancer epithelial cells; assay: Apoptosis after siRNA silencing, ARPE19 cells
Experimental: as §1, §2

SIRT1 Δ2-9 mRNA = SIRT1 Δ2-9 mRNA knock-down by RT-PCR in ARPE19 and HCT116 cells
Experimental: as §1
Standard RT-PCR was performed on a DNA Engine Dyad (MJ Research) using a One-Step RT-PCR kit (Qiagen). Reaction endpoints were electrophoresed on agarose gels, visualised on a UV transilluminator (Appligene) and images captured with a DS34 camera (Polaroid). […] Total RNA from cell experiments was isolated using an RNeasy kit (Qiagen) and quantitated by UV spectroscopy (GeneSpecV). For qRT-PCR, reactions were run in quadruplicate on a DNA Engine Opticon (BioRad) using a QuantiTect SYBR Green RT-PCR kit (Qiagen). […]
In order to look at the functional significance of SIRT1 Δ2-9, a siRNA was designed to the splice junction region of exon-2 and exon-9. […] These changes were also confirmed by quantitative RT-PCR (FIG. 20E). […]

Molecule | p53 induction in response to DNA damaging agent (p53 [1]) | accumulation of total p53 protein (p53 [3]; HCT116 cells, basal conditions) | induction of apoptosis [4] | morphological differentiation towards neuronal phenotype after siRNA silencing [2] | also measured
COc1cc([C@@H]2c3cc4c(cc3[C@@H](O[C@@H]3O[C@@H]5CO[C@@H](C)O[C@H]5[C@H](O)[C@H]3O)[C@H]3COC(=O)[C@H]23)OCO4)cc(OC)c1O [Etoposide, reference compound] | induced substantially |  |  |  | 
O=c1[nH]cc(F)c(=O)[nH]1 [SFU, reference compound] | induced substantially |  |  |  | 
CC1=C(/C=C/C(C)=C/C=C/C(C)=C/C(=O)Nc2ccc(O)cc2)C(C)(C)CCC1 [fenretinide, reference compound] |  |  |  |  | neuronal differentiation induced by compound ([2]; 1 μM, 48 h, OPTIMEM): can be induced
ACUUUGCUGUAACCCUGUA [SIRT1 FL siRNA] |  | approximately 10 fold | induced massive apoptosis | induces neuronal differentiation | increase of p53 acetylation levels (p53 [3]; HCT116 cells, basal conditions): more than 50 fold; induction of apoptosis [5]: fails to induce apoptosis
CCUUCUGUUCGUUCUUGUG [SIRT1 Δ2-9 siRNA] |  |  |  |  | p53 protein level (Western blot) (p53 [3]; HCT116 p53+/+ cells): significantly reduced; p53 protein level (Western blot) (p53 [1]): significantly reduced; stress-induced p53 induction in siRNA treated samples (p53 [1]; Etoposide, UV or 5FU in combination with siRNA): attenuated; SIRT1 Δ2-9 mRNA expression (SIRT1 Δ2-9 mRNA): almost completely abolished
UAAUUCCAAGUAAUCAGUA [SIRT1 ΔEx8 siRNA] |  | A similar effect was not observed | did not induce apoptosis | did not induce morphological differentiation | 
